Eleven molecules from PubChem BioAssay (NCI) can be followed below.

Among the test systems are MALME-3M melanoma; SF-268 CNS; TK-10 renal; OVCAR-8 ovarian; HOP-92 NSCLC; MOLT-4 leukemia; SN12C renal; NCI-H226 lung; NCI-H23 lung; M14 melanoma.
What all share (assay): inhibition of tumour cell growth, NCI panel, 48 h

Molecules are shown by their SMILES. Where “and” joins values, the source holds several entries; their conditions need not be identical. Equal values may be shown once.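 Compound exposure: 48 hours, 5 concentrations, 96-well plates. GI50: concentration for 50% inhibition of growth. TGI denotes the concentration required for complete inhibition of growth.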 A value given as a limit tells only on which side of the number the result lay.

Consider `CC(C)C1CC(O)O[C@@H]([C@@H](C)[C@H]2CC(=O)[C@@H]3[C@@H]4[C@@H](O)[C@H](O)[C@H]5[C@@H](O)[C@H](O)CC[C@]5(C)[C@H]4CC[C@]23C)C1` (stereo partly drawn), for which the TGI is > 100 µM in the assay on MALME-3M melanoma; > 100 µM in the assay with SF-268 CNS; > 100 µM in the assay with TK-10 renal; > 100 µM in the assay on OVCAR-8 ovarian; 57.1 µM in the assay with HOP-92 NSCLC; > 100 µM with MOLT-4 leukemia. Besides, the TGI in the assay with SN12C renal, in the assay on NCI-H226 lung, in the assay on NCI-H23 lung and in the assay with M14 melanoma was > 100 µM each time.
Turning to `O=C1C2=C(c3ccccc31)C(c1ccccc1)NC(=S)N2` (stereo not drawn), the TGI was > 100 µM with MALME-3M melanoma; > 100 µM in the assay on SF-268 CNS; > 100 µM with TK-10 renal; > 100 µM with OVCAR-8 ovarian; 97.1 µM with HOP-92 NSCLC; > 100 µM in the assay on MOLT-4 leukemia. The TGI in the assay on SN12C renal, in the assay on NCI-H226 lung, in the assay with NCI-H23 lung and in the assay on M14 melanoma was > 100 µM in each case.
Regarding `CC(=O)Nc1ccc2c(c1)oc(=O)c1cc(NC(C)=O)ccc12`, the GI50 in the assay with MALME-3M melanoma was 35.6 µM; in the assay on SF-268 CNS, 50.5 µM; in the assay with TK-10 renal, 98.7 µM; with OVCAR-8 ovarian, > 100 µM; with HOP-92 NSCLC it was 29.6 µM; with MOLT-4 leukemia, 18.9 µM. Besides, the GI50 in the assay with SN12C renal is 29.6 µM; in the assay with NCI-H226 lung, > 100 µM; with NCI-H23 lung it was > 100 µM; in the assay with M14 melanoma, 91.6 µM. In addition, the TGI in the assay on MALME-3M melanoma, in the assay on SF-268 CNS, with TK-10 renal, in the assay with OVCAR-8 ovarian, in the assay with HOP-92 NSCLC and with MOLT-4 leukemia was > 100 µM throughout. In addition, the TGI with SN12C renal, in the assay on NCI-H226 lung, in the assay with NCI-H23 lung and with M14 melanoma was > 100 µM throughout.
Consider `N#CC(C(=O)C(=O)NCCCNC(=O)C(=O)C(C#N)c1ccccc1)c1ccccc1` (stereo not drawn), for which the TGI in the assay on MALME-3M melanoma, in the assay with SF-268 CNS, in the assay with TK-10 renal, with OVCAR-8 ovarian, with HOP-92 NSCLC and with MOLT-4 leukemia was > 100 µM in each case. In addition, the TGI in the assay with SN12C renal, with NCI-H226 lung, in the assay with NCI-H23 lung and with M14 melanoma was > 100 µM throughout.
Consider `CC/C=C\C/C=C\C/C=C\CCCCCCCC(=O)OCC`, for which the TGI in the assay with MALME-3M melanoma, with SF-268 CNS, in the assay on TK-10 renal, in the assay with OVCAR-8 ovarian, in the assay on HOP-92 NSCLC and in the assay with MOLT-4 leukemia was > 100 µM throughout. Further, the TGI with SN12C renal, with NCI-H226 lung, with NCI-H23 lung and with M14 melanoma was > 100 µM in each case.
Take `CCOc1ccc(NCc2cc(OC)c(OC)c(OC)c2)cc1`: the TGI in the assay on MALME-3M melanoma is > 100 µM; with SF-268 CNS, > 100 µM; in the assay on TK-10 renal, > 100 µM; in the assay with OVCAR-8 ovarian, > 80.7 µM and 62.6 µM; in the assay with HOP-92 NSCLC, > 91.6 µM; with MOLT-4 leukemia, > 100 µM. Besides, the TGI was > 100 µM with SN12C renal; > 100 µM in the assay with NCI-H226 lung; 31.4 µM and 39.3 µM in the assay on NCI-H23 lung; > 100 µM with M14 melanoma. Also, the GI50 in the assay on TK-10 renal was > 100 µM; in the assay on OVCAR-8 ovarian, 5.75 µM and 2.31 µM; in the assay on SN12C renal, 1.41 µM and 7.91 µM.
Take `Clc1nc(Cl)c2c(ncn2C/C=C\Cn2cnc3c(Cl)nc(Cl)nc32)n1`: the GI50 in the assay with MALME-3M melanoma was 2.22 µM; with SF-268 CNS, 1.74 µM; with TK-10 renal it was 1.85 µM; in the assay with OVCAR-8 ovarian it was 1.2 µM; in the assay on HOP-92 NSCLC, 1.89 µM; in the assay on MOLT-4 leukemia, 1.42 µM. For the same molecule, the GI50 in the assay with SN12C renal was 1.8 µM; in the assay with NCI-H226 lung it was 1.76 µM; with NCI-H23 lung, 1.72 µM; in the assay on M14 melanoma it was 2.79 µM. Also, the TGI in the assay on MALME-3M melanoma was 4.2 µM; in the assay on SF-268 CNS it was 5.49 µM; in the assay on TK-10 renal it was 3.45 µM; in the assay on OVCAR-8 ovarian it was 4.37 µM; with HOP-92 NSCLC, 3.58 µM; in the assay on MOLT-4 leukemia, 3.25 µM. The TGI with SN12C renal amounted to 6.14 µM; with NCI-H226 lung, 3.84 µM; with NCI-H23 lung, 3.93 µM; in the assay with M14 melanoma, 6.92 µM.
With `NNC(=O)CCC(=O)NC1C2CC3CC(C2)CC1C3` (stereo not drawn), the TGI with MALME-3M melanoma, with SF-268 CNS, with TK-10 renal, with OVCAR-8 ovarian, in the assay on HOP-92 NSCLC and in the assay on MOLT-4 leukemia was > 100 µM in each case. Further, the TGI in the assay with SN12C renal, in the assay with NCI-H226 lung, with NCI-H23 lung and with M14 melanoma was > 100 µM in each case.
For `COc1cc([C@@H]2c3cc4c(cc3[C@@H](NC(=O)c3ccccc3)C3COC(=O)[C@@H]32)OCO4)cc(OC)c1O` (stereo partly drawn), the TGI is 26.6 µM with MALME-3M melanoma; > 100 µM in the assay with SF-268 CNS; 92.5 µM in the assay with TK-10 renal; 37.7 µM with OVCAR-8 ovarian; 87.9 µM with HOP-92 NSCLC; 9.18 µM in the assay on MOLT-4 leukemia. Besides, the TGI in the assay on SN12C renal came to 9.81 µM; in the assay on NCI-H226 lung, 8.28 µM; with NCI-H23 lung it was 10.7 µM; with M14 melanoma, 24.8 µM.
For the molecule `CC1S(=O)(=O)OCCOS1(=O)=O`, the TGI with MALME-3M melanoma, with SF-268 CNS, in the assay with TK-10 renal, with OVCAR-8 ovarian, in the assay with HOP-92 NSCLC and with MOLT-4 leukemia was > 100 µM each time. For the same molecule, the TGI in the assay on SN12C renal, in the assay with NCI-H226 lung, in the assay with NCI-H23 lung and in the assay on M14 melanoma was > 100 µM in each case.
On to `C=C1C(=O)O[C@H]2[C@H]1CC/C(COC(=O)N1CCC[C@H]1C(=O)Nc1ccc(OC)c(C(N)=O)c1O)=C\CC[C@@]1(C)O[C@@H]21`, for which the GI50 is 2.42 µM in the assay with MALME-3M melanoma; 5.63 µM with SF-268 CNS; 1.92 µM with TK-10 renal; 4.73 µM with OVCAR-8 ovarian; 1.23 µM in the assay on HOP-92 NSCLC; 2.24 µM in the assay on MOLT-4 leukemia. The GI50 was 2.96 µM in the assay with SN12C renal, 2.24 µM with NCI-H226 lung, 5.44 µM in the assay with NCI-H23 lung and 1.89 µM in the assay with M14 melanoma. Further, the TGI in the assay on MALME-3M melanoma was 6.54 µM; in the assay on SF-268 CNS, 24.7 µM; in the assay with TK-10 renal it was 7.16 µM; with OVCAR-8 ovarian, 26 µM; in the assay on HOP-92 NSCLC it was 3.32 µM; with MOLT-4 leukemia, 5.63 µM. Moreover, the TGI with SN12C renal was determined as 10.3 µM; with NCI-H226 lung, 7.12 µM; in the assay with NCI-H23 lung, 22.6 µM; with M14 melanoma it was 4.19 µM.
